Laboratory results published in US10004701B2, “Methods and compositions for treating infection” (UNIVERSITY OF ROCHESTER, priority 2012, dated 2018).
Structures can show the parent of a compound that is named as a salt.

Columns and labels:
Assay in all cases: AK assay 384-well format, Prestwick library screening
E. cloacae = format: cell-based, Enterobacter cloacae
E. coli = format: cell-based, Escherichia coli
P. aeruginosa = format: cell-based, Pseudomonas aeruginosa
[1] = test system: A. baumannii strain 98-37-09; format: cell-based, Acinetobacter baumannii
[2] = test system: S. aureus strain USA300-0114; format: cell-based, Staphylococcus aureus
E. faecium = format: cell-based, Enterococcus faecium
K. pneumoniae = format: cell-based, Klebsiella pneumoniae
[3] = 50 μM final drug concentration, planktonic, cutoff for positive 3-fold increase
[4] = 50 μM final drug concentration, planktonic, cutoff for positive-scoring molecules 3-fold increase
[5] = 50 μM final drug concentration, cutoff for positive-scoring molecules 3-fold increase

SMILES: CC(=C(CCO)SSCC1CCCO1)N(C=O)Cc1cnc(C)nc1N (stereo in doubt) [Fursultiamine Hydrochloride]
- fold induction at 50 µM (E. cloacae; Enterobacter cloacae, 3 h, read-out: AK-based Prestwick library screening result, E. cloacae (fold increase in extracellular AK activity)): 1.2
- fold induction at 50 µM (E. coli; Escherichia coli, 3 h, read-out: AK-based Prestwick library screening result, E. coli (fold increase in extracellular AK activity)): 1.4
- fold induction at 50 µM (P. aeruginosa; Pseudomonas aeruginosa, 3 h, read-out: AK-based Prestwick library screening result, P. aeruginosa (fold increase in extracellular AK activity)): 1.1
- fold induction at 50 µM ([1]; Acinetobacter baumannii, 983709, 3 h, read-out: AK-based Prestwick library screening result, A. baumannii (fold increase in extracellular AK activity)): 1.3
- fold induction at 50 µM ([2]; Staphylococcus aureus, USA300, 3 h, read-out: AK-based Prestwick library screening result, S. aureus (fold increase in extracellular AK activity)): 1
- fold induction at 50 µM (E. faecium; Enterococcus faecium, 3 h, read-out: AK-based Prestwick library screening result, E. faecium (fold increase in extracellular AK activity)): 1.1
- fold induction at 50 µM (K. pneumoniae; Klebsiella pneumoniae, 3 h, read-out: AK-based Prestwick library screening result, K. pneumoniae (fold increase in extracellular AK activity)): 1

SMILES: CC(=O)NC1[C@@H](O)OC(CO)[C@@H](O)[C@H]1O[C@H](C)C(=O)O (stereo in doubt) [Muramic acid, N-acetyl]
- AK-based Prestwick Library Screening Results, E. cloacae (fold increase in extracellular AK activity) (E. cloacae; [3]): 1.4
- AK-based Prestwick Library Screening Results, E. coli (fold increase in extracellular AK activity) (E. coli; [3]): 1.1
- AK-based Prestwick Library Screening Results, P. aeruginosa (fold increase in extracellular AK activity) (P. aeruginosa; [3]): 1.1
- AK-based Prestwick Library Screening Results, A. baumannii (fold increase in extracellular AK activity) [1, 3]: 1.5
- AK-based Prestwick Library Screening Results, S. aureus (fold increase in extracellular AK activity) [2, 3]: 1.0
- AK-based Prestwick Library Screening Results, E. faecium (fold increase in extracellular AK activity) (E. faecium; [3]): 1.0
- AK-based Prestwick Library Screening Results, K. pneumoniae (fold increase in extracellular AK activity) (K. pneumoniae; [3]): 1.0

SMILES: CC(C)NC[C@@H](O)c1ccc(O)c(O)c1.O=C(O)C(O)C(O)C(=O)O [(+)-Isoproterenol (+)-bitartrate salt]
- AK-based Prestwick Library Screening Results, E. cloacae (fold increase in extracellular AK activity) (E. cloacae; [4]): 1.4
- AK-based Prestwick Library Screening Results, E. coli (fold increase in extracellular AK activity) (E. coli; [4]): 0.9
- AK-based Prestwick Library Screening Results, P. aeruginosa (fold increase in extracellular AK activity) (P. aeruginosa; [4]): 0.8
- AK-based Prestwick Library Screening Results, A. baumannii (fold increase in extracellular AK activity) [1, 4]: 0.8
- AK-based Prestwick Library Screening Results, S. aureus (fold increase in extracellular AK activity) [2, 4]: 0.8
- AK-based Prestwick Library Screening Results, E. faecium (fold increase in extracellular AK activity) (E. faecium; [4]): 0.9
- AK-based Prestwick Library Screening Results, K. pneumoniae (fold increase in extracellular AK activity) (K. pneumoniae; [4]): 1.0

SMILES: CC(C)(C)NC[C@@H](O)COc1cccc2c1CCCC2=O.Cl [(+)-Levobunolol hydrochloride]
- AK-based Prestwick Library Screening Results, E. cloacae (fold increase in extracellular AK activity) (E. cloacae; [5]): 1.5
- AK-based Prestwick Library Screening Results, E. coli (fold increase in extracellular AK activity) (E. coli; [5]): 1.2
- AK-based Prestwick Library Screening Results, P. aeruginosa (fold increase in extracellular AK activity) (P. aeruginosa; [5]): 1.2
- AK-based Prestwick Library Screening Results, A. baumannii (fold increase in extracellular AK activity) [1, 5]: 0.9
- AK-based Prestwick Library Screening Results, S. aureus (fold increase in extracellular AK activity) [2, 5]: 1.3
- AK-based Prestwick Library Screening Results, E. faecium (fold increase in extracellular AK activity) (E. faecium; [5]): 0.9
- AK-based Prestwick Library Screening Results, K. pneumoniae (fold increase in extracellular AK activity) (K. pneumoniae; [5]): 0.9

SMILES: CC(C)NC[C@@H](O)COc1ccc(CC(N)=O)cc1 [(R)-(+)-Atenolol]
- AK-based Prestwick Library Screening Results, E. cloacae (fold increase in extracellular AK activity) (E. cloacae; [5]): 1.3
- AK-based Prestwick Library Screening Results, E. coli (fold increase in extracellular AK activity) (E. coli; [5]): 1.3
- AK-based Prestwick Library Screening Results, P. aeruginosa (fold increase in extracellular AK activity) (P. aeruginosa; [5]): 1.2
- AK-based Prestwick Library Screening Results, A. baumannii (fold increase in extracellular AK activity) [1, 5]: 1.3
- AK-based Prestwick Library Screening Results, S. aureus (fold increase in extracellular AK activity) [2, 5]: 1.2
- AK-based Prestwick Library Screening Results, E. faecium (fold increase in extracellular AK activity) (E. faecium; [5]): 1.0
- AK-based Prestwick Library Screening Results, K. pneumoniae (fold increase in extracellular AK activity) (K. pneumoniae; [5]): 1.2

SMILES: COc1ccc2cc([C@@H](C)C(=O)[O-])ccc2c1.[Na+] [(R)-Naproxen sodium salt]
- AK-based Prestwick Library Screening Results, E. cloacae (fold increase in extracellular AK activity) (E. cloacae; [5]): 1.7
- AK-based Prestwick Library Screening Results, E. coli (fold increase in extracellular AK activity) (E. coli; [5]): 1.1
- AK-based Prestwick Library Screening Results, P. aeruginosa (fold increase in extracellular AK activity) (P. aeruginosa; [5]): 1.0
- AK-based Prestwick Library Screening Results, A. baumannii (fold increase in extracellular AK activity) [1, 5]: 1.1
- AK-based Prestwick Library Screening Results, S. aureus (fold increase in extracellular AK activity) [2, 5]: 1.0
- AK-based Prestwick Library Screening Results, E. faecium (fold increase in extracellular AK activity) (E. faecium; [5]): 1.0
- AK-based Prestwick Library Screening Results, K. pneumoniae (fold increase in extracellular AK activity) (K. pneumoniae; [5]): 1.0

SMILES: CC(C)NC[C@@H](O)COc1cccc2ccccc12.Cl [(R)-Propranolol hydrochloride]
- AK-based Prestwick library screening result, E. cloacae (fold increase in extracellular AK activity) (E. cloacae; planktonic E. cloacae, 50 μM final drug concentration, positive cutoff 3-fold increase): 17.3
- AK-based Prestwick library screening result, E. coli (fold increase in extracellular AK activity) (E. coli; planktonic E. coli, 50 μM final drug concentration, positive cutoff 3-fold increase): 0.8
- AK-based Prestwick library screening result, P. aeruginosa (fold increase in extracellular AK activity) (P. aeruginosa; planktonic P. aeruginosa, 50 μM final drug concentration, positive cutoff 3-fold increase): 0.8
- AK-based Prestwick library screening result, A. baumannii (fold increase in extracellular AK activity) ([1]; planktonic A. baumannii, 50 μM final drug concentration, positive cutoff 3-fold increase): 0.9
- AK-based Prestwick library screening result, S. aureus (fold increase in extracellular AK activity) ([2]; planktonic S. aureus, 50 μM final drug concentration, positive cutoff 3-fold increase): 0.8
- AK-based Prestwick library screening result, E. faecium (fold increase in extracellular AK activity) (E. faecium; planktonic E. faecium, 50 μM final drug concentration, positive cutoff 3-fold increase): 0.9
- AK-based Prestwick library screening result, K. pneumoniae (fold increase in extracellular AK activity) (K. pneumoniae; planktonic K. pneumoniae, 50 μM final drug concentration, positive cutoff 3-fold increase): 0.7
